Assay results published in publication PMC12144822 (Parasites & Vectors, 2025).
Entries after “also recorded” stand apart in the source; their conditions may differ. Like-named read-outs stand apart in the source and are kept apart here.

What was measured:
Hsa-GABA α2β2γ2 = Hsa-GABA α2β2γ2 (Homo sapiens, UniProt P18507+P47869+P47870); assay: Two-electrode voltage-clamp inhibition of GABA current, receptor expressed in Xenopus oocytes
Description: (§1) Complementary DNA (cDNA) encoding for the human GABAA proteins α1 (NM_001127645.2), α2 (NM_001377146.1), α3 (KJ620007.1), α4 (NM_000809.4), α5 (NM_000810.4), α6 (NM_000811.3), β2 (XM_054352312.1), β3 (M82919.1), γ2 (NM_000816.3) and δ (NM_000815.5) were ordered from Genewiz (www.genewiz.com; Leipzig, Germany); for each gene, GenBank accession numbers are provided in parentheses. When necessary, silent mutations were introduced to break NheI or XhoI internal restriction sites. The corresponding open reading frames (ORF) were cloned into the pT7-TS transcription vector (introducing X. laevis β-globin untranslated cDNA to the 5’ and 3’ ends of the gene), following a procedure described in detail in a previous publication. The same process was used to obtain cDNA encoding canine GABAA proteins α4 (XM_025435560.1), α6 (XM_022417729.1) and δ (XM_005620414.2). Gene α2 (XM_025435664.1), α3 (XM_549343.5), α5 (XM_545805.6) and β3 (XM_025437408.1) were obtained by PCR; GenBank reference accession numbers are provided in parentheses. RNA extraction, cDNA synthesis and PCR amplification were performed as described previously. Total RNA was extracted from a piece of dog brain (Beagle breed; Canis lupus familiaris) from which 1 µg of total RNA (DNase-treated) was reverse-transcribed to cDNA using a (dT)30 primer and SuperScript III Reverse Transcriptase (Invitrogen, Thermo Fisher Scientific, Waltham, MA, USA). Gene-specific primers (Additional file 1: Table S1) were designed using Primer 3 software (http://frodo.wi.mit.edu/). […] The cycling conditions were: 98 °C for 30 s; then 38 cycles of 98 °C for 10 s, 58 °C for 30 s and 72 °C for 90 s; followed by 72 °C for 5 min. The dog subunits α1 (XM_546261.5), β2 (XM_014113040.1) and γ2 (XM_546259.5) had been previously amplified and described in a study by Rufener et al..
(§2) Defoliculated X. laevis oocytes ordered from Ecocyte Bioscience (Dortmund, Germany) were microinjected with 15–25 nl of cRNA solution (5–50 ng/μl) per oocyte using an automated injector (Roboinject; Multi Channel Systems MCS GmbH, Reutlingen, Germany) and then incubated at 18 °C. All recordings were made 1–5 days post-cRNA injection and were performed at 18 ± 4 °C. Cells were superfused with OR2 medium (NaCl 88 mM, KCl 2.5 mM, HEPES 5 mM, CaCl2•2H2O 1.8 mM, MgCl2•7H2O 1.0 mM, pH 7.4). To ensure that γ2 subunits were integrated into the heteropentamers, we injected fivefold more γ2 than the other subunit cRNAs. Diazepam is a positive allosteric modulator of GABAR only if γ2 subunits are present. Therefore, we used this method to confirm the presence of human and dog GABAA receptor containing the γ2 subunit.
(§3) Voltage-clamp measurements were performed as described by Rufener et al.. Oocytes were impaled with two electrodes filled with 3 M KCl, and their membrane potentials were maintained at − 80 mV throughout the experiment. […] Recordings were performed using an automated process equipped with standard two-electrode voltage-clamp configuration (HiClamp system; Multi Channel Systems MCS GmbH). Data were filtered at 10 Hz, captured at 100 Hz and analyzed using proprietary data acquisition and analysis software in MATLAB (Mathworks Inc., Natick, MA, USA). Additional analyses were performed using Excel (Microsoft, Redmond, WA, USA). […] Graphing the maximum inward currents against the log of agonist concentration produces typical concentration-activation and concentration-inhibition curves, which can be accurately described using individual Hill equations.

Hsa-GABA α2β3γ2 = Hsa-GABA α2β3γ2 (Homo sapiens, UniProt P18507+P28472+P47869); assay: as above
Description: as §1, §2, §3

Hsa-GABA α3β2γ2 = Hsa-GABA α3β2γ2 (Homo sapiens, UniProt P18507+P34903+P47870); assay: as above
Description: as §1, §2, §3

Hsa-GABA α5β2γ2 = Hsa-GABA α5β2γ2 (Homo sapiens, UniProt P18507+P31644+P47870); assay: as above
Description: as §1, §2, §3

Hsa-GABA α6β2γ2 = Hsa-GABA α6β2γ2 (Homo sapiens, UniProt P18507+P47870+Q16445); assay: as above
Description: as §1, §2, §3

Clu-GABA α1β2γ2 = Clu-GABA α1β2γ2 (Canis lupus familiaris, UniProt A0A2H4NNI8+A0A8I3RPG5+E2RSQ0); assay: as above; format: cell-based
Description: as §1, §2, §3

Clu-GABA α2β2γ2 = Clu-GABA α2β2γ2 (Canis lupus familiaris, UniProt A0A8I3RPG5+A0A8I3S1N5+E2RSQ0); assay: as above; format: cell-based
Description: as §1, §2, §3

Clu-GABA α2β3γ2 = Clu-GABA α2β3γ2 (Canis lupus familiaris, UniProt A0A8I3NUI4+A0A8I3S1N5+E2RSQ0); assay: as above; format: cell-based
Description: as §1, §2, §3

Clu-GABA α3β2γ2 = Clu-GABA α3β2γ2 (Canis lupus familiaris, UniProt A0A8I3PRS3+A0A8I3RPG5+E2RSQ0); assay: as above; format: cell-based
Description: as §1, §2, §3

Clu-GABA α5β2γ2 = Clu-GABA α5β2γ2 (Canis lupus familiaris, UniProt A0A8I3PC22+A0A8I3RPG5+E2RSQ0); assay: as above; format: cell-based
Description: as §1, §2, §3

Hsa-GABARs = assay: Voltage-clamp inhibition, summary over the six human subunit combinations; conditions: for average GABA current inhibition: at 30 μM, average over Hsa-GABARs; for inhibition of human GABARs (in words): tested up to 30 μM
Protocol: as §2
as §3, with “equations. The concentration-activation curves were fitted using the following equation: Y=100/1+10^H(logEC50-X) where Y is the normalized response, logEC50 is the logarithm of the concentration of agonist eliciting half-maximal current amplitude, X is the log of the dose or concentration, and H is the slope factor or Hill slope. The same equation was used for the concentration-inhibition curves but logEC50 was replaced by logIC50 (half-maximal inhibitory concentration).” for “equations.”
(§4) The agonist and the drug were then washed off for 15 s and the oocyte was exposed again to the same drug concentration for 25 s before increasing to the next concentration.

Clu-GABARs = assay: Voltage-clamp inhibition, summary over the five canine subunit combinations; format: cell-based, Canis lupus familiaris; conditions: at 30 μM
Protocol: as §2
as §3, with “equations. The concentration-activation curves were fitted using the following equation: Y=100/1+10^H(logEC50-X) where Y is the normalized response, logEC50 is the logarithm of the concentration of agonist eliciting half-maximal current amplitude, X is the log of the dose or concentration, and H is the slope factor or Hill slope. The same equation was used for the concentration-inhibition curves but logEC50 was replaced by logIC50 (half-maximal inhibitory concentration).” for “equations.”
as §4

human and canine GABARs = assay: Voltage-clamp inhibition, summary over human and canine receptors; format: cell-based; conditions: for inhibitory effect on human and canine GABARs (in words): tested up to 30 μM
Protocol: as §2
as §3, with “equations. The concentration-activation curves were fitted using the following equation: Y=100/1+10^H(logEC50-X) where Y is the normalized response, logEC50 is the logarithm of the concentration of agonist eliciting half-maximal current amplitude, X is the log of the dose or concentration, and H is the slope factor or Hill slope. The same equation was used for the concentration-inhibition curves but logEC50 was replaced by logIC50 (half-maximal inhibitory concentration).” for “equations.”
as §4

[1] = design: method as in PMID 33733534; conditions: cited from earlier work; for maximum plasma concentration: dose of 25 mg/kg body weight; for maximum in vivo concentration in dog plasma: oral treatment at the minimum recommended dose
Hsa-GABA α1β2γ2 = Hsa-GABA α1β2γ2 (Homo sapiens, UniProt P14867+P18507+P47870); assay: Two-electrode voltage-clamp inhibition of GABA current, receptor expressed in Xenopus oocytes
Description: as §1, §2, §3

[2] = design: method as in earlier work; conditions: mdr1 mutant mouse model; cited from earlier work
[3] = design: method as in PMID 40269978; conditions: MDR1 mutant dog breeds; cited from earlier work
[4] = system: human and dog GABAA receptor containing the γ2 subunit; assay: Positive modulation by diazepam to confirm γ2 incorporation; format: cell-based; conditions: all receptor subtypes expressed; data not shown
Protocol: as §2

[5] = Xenopus oocytes, −80 mV, 60 s pre-exposure, co-applied with GABA 3 µM (near EC10)
[6] = Xenopus oocytes, −80 mV, 60 s pre-exposure, co-applied with GABA 1 µM (near EC10)
[7] = Xenopus oocytes, −80 mV, 60 s pre-exposure, co-applied with GABA 0.3 µM (near EC10)
[8] = Xenopus oocytes, −80 mV, 60 s pre-exposure, co-applied with GABA 5 µM (near EC10)
[9] = Xenopus oocytes, −80 mV, 60 s pre-exposure, co-applied with GABA 0.5 µM (near EC10)

Chain of Hsa-GABA α3β2γ2 (P34903 29-492): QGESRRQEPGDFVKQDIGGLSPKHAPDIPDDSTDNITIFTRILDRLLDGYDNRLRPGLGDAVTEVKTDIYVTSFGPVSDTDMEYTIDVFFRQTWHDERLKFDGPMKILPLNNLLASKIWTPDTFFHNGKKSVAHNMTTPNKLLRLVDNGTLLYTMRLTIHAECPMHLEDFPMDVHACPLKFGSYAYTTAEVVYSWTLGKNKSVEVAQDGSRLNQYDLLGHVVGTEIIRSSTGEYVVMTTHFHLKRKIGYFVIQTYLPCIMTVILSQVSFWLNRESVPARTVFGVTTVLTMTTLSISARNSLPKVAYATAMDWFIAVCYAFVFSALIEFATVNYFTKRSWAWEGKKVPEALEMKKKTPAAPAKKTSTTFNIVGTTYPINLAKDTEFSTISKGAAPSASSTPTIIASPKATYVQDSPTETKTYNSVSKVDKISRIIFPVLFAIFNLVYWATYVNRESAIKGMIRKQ
Chain of Hsa-GABA α3β2γ2 (P47870 26-474 isoform P47870-1 limits assumed): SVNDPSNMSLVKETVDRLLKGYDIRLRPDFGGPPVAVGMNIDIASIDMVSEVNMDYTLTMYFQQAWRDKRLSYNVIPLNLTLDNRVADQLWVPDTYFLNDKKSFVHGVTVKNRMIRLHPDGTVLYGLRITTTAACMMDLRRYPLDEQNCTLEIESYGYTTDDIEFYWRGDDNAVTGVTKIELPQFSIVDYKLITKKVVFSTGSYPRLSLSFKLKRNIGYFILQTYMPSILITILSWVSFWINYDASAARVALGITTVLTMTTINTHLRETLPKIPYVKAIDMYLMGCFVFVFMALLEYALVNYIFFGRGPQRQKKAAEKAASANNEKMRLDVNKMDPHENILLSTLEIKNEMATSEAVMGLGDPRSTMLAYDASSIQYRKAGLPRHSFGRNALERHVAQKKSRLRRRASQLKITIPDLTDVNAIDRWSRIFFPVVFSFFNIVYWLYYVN
Chain of Hsa-GABA α3β2γ2 (P18507 40-467 isoform P18507-1 limits assumed): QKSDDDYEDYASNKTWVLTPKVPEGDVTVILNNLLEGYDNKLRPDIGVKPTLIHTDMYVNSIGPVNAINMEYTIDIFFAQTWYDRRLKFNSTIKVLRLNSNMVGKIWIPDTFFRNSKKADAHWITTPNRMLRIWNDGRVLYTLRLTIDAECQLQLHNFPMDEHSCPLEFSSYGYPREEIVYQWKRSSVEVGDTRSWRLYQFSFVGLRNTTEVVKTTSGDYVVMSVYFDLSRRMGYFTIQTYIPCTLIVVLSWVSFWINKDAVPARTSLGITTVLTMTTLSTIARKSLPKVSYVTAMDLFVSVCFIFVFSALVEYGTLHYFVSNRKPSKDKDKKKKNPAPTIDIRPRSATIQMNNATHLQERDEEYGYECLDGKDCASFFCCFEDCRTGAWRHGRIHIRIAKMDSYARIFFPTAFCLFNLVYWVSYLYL
Chain of Clu-GABA α5β2γ2 (A0A8I3PC22 32-462): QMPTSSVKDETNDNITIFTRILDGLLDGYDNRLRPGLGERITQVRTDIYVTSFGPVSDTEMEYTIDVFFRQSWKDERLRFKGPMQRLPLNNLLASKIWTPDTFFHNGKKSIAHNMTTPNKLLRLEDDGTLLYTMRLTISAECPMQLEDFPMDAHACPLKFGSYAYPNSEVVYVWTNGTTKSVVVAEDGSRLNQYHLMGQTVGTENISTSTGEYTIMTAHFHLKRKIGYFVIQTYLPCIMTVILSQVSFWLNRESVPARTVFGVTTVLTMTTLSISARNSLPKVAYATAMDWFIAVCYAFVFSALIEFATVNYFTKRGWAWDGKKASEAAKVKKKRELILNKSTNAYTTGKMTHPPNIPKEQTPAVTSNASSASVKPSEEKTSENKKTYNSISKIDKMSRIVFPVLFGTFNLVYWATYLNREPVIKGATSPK
Chain of Clu-GABA α5β2γ2 (A0A8I3RPG5 25-473): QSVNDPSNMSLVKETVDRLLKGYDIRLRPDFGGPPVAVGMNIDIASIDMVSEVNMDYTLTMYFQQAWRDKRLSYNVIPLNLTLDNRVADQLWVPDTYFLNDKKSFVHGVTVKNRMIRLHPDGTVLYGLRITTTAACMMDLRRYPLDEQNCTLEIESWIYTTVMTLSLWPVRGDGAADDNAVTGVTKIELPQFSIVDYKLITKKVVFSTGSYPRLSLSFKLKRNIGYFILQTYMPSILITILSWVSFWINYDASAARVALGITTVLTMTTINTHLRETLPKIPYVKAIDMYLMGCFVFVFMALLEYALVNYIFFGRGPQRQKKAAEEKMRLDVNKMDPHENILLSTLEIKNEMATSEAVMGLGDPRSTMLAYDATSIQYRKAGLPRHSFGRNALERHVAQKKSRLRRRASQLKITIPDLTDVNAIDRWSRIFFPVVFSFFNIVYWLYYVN
Chain of Clu-GABA α5β2γ2 (E2RSQ0 40-467): as the sequence (P18507 40-467 isoform P18507-1 limits assumed) above
Chain of Clu-GABA α2β2γ2 (A0A8I3S1N5 29-451): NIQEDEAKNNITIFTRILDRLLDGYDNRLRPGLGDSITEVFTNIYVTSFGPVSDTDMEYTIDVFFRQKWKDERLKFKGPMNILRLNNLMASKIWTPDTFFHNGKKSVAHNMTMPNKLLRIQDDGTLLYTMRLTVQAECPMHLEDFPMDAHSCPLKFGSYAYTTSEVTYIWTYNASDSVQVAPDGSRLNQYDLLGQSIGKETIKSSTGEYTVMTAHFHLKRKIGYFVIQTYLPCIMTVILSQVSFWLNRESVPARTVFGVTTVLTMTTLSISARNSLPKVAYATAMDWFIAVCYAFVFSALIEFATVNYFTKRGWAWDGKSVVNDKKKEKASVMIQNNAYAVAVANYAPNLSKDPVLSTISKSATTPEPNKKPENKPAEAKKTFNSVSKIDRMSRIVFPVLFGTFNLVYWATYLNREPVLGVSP
Chain of Clu-GABA α2β2γ2 (A0A8I3RPG5 25-473): as the sequence (A0A8I3RPG5 25-473) above
Chain of Clu-GABA α2β2γ2 (E2RSQ0 40-467): as the sequence (P18507 40-467 isoform P18507-1 limits assumed) above

Row | Compound | IC50 (Hsa-GABA α2β2γ2; [5]) | IC50 (Hsa-GABA α2β3γ2; [6]) | IC50 (Hsa-GABA α3β2γ2; [6]) | IC50 (Hsa-GABA α5β2γ2; [7]) | IC50 (Hsa-GABA α6β2γ2; [7]) | IC50 (Clu-GABA α1β2γ2; [6]) | IC50 (Clu-GABA α2β2γ2; [8]) | IC50 (Clu-GABA α2β3γ2; [6]) | IC50 (Clu-GABA α3β2γ2; [9]) | IC50 (Clu-GABA α5β2γ2; [6]) | average GABA current inhibition (Hsa-GABARs) | average GABA current inhibition (Clu-GABARs) | inhibitory effect on human and canine GABARs (in words) (human and canine GABARs) | IC50 (Hsa-GABA α1β2γ2; [6]) | inhibition of human GABARs (in words) (Hsa-GABARs) | maximum in vivo concentration in dog plasma [1] | other results
1 | O=C(CNC(=O)c1ccc(C2=NOC(c3cc(Cl)cc(C(F)(F)F)c3)(C(F)(F)F)C2)c2ccccc12)NCC(F)(F)F (centres unmarked) [Afoxolaner, afoxolaner] | 9.9 µM | 20.5 µM | 15 µM | 6.3 µM | 11.7 µM | 3 µM | 20.6 µM | 15.7 µM | 17.9 µM | 7.4 µM | 59% | 57% | partial to high inhibition | – | – | – | Cmax ([1]; oral dosing at 2.5 mg/kg, read-out: Cmax (peak concentration in the bloodstream)): 4.7 µM
2 | Cc1cc(C2=NOC(c3cc(Cl)cc(Cl)c3)(C(F)(F)F)C2)ccc1C(=O)NCC(=O)NCC(F)(F)F (centres unmarked) [Fluralaner, fluralaner] | 1.9 µM | 5.5 µM | 4.9 µM | 2.7 µM | 2.2 µM | 4.3 µM | 2.2 µM | 13 µM | 9.4 µM | 2.3 µM | 82% | 76% | partial to high inhibition | 5.7 µM | high inhibition | – | current inhibition (Hsa-GABA α2β2γ2; at 30 μM): > 90%; current inhibition (Hsa-GABA α5β2γ2; at 30 μM): > 90%; current inhibition (Hsa-GABA α6β2γ2; at 30 μM): > 90%; maximum plasma concentration ([1]; converted from ng/ml): 6.1 µM; maximum plasma concentration [1]: 3400 ng/mL; brain penetration (in words) [2]: brain penetration of fluralaner was observed
3 | Cc1cc(C2=NO[C@@](c3cc(Cl)c(Cl)c(Cl)c3)(C(F)(F)F)C2)sc1C(=O)NCC(=O)NCC(F)(F)F [Lotilaner, lotilaner] | – | – | – | – | – | – | – | – | – | – | 13% | 20% | inactive | – | – | 6.7 µM | IC50 (Hsa-GABA α1β2γ2): > 30 µM; IC50 (Hsa-GABA α2β2γ2): > 30 µM; IC50 (Hsa-GABA α2β3γ2): > 30 µM; IC50 (Hsa-GABA α3β2γ2): > 30 µM; IC50 (Hsa-GABA α5β2γ2): > 30 µM; IC50 (Hsa-GABA α6β2γ2): > 30 µM; IC50 (Clu-GABA α1β2γ2): > 30 µM; IC50 (Clu-GABA α2β2γ2): > 30 µM; IC50 (Clu-GABA α2β3γ2): > 30 µM; IC50 (Clu-GABA α3β2γ2): > 30 µM; IC50 (Clu-GABA α5β2γ2): > 30 µM; IC50 (human and canine GABARs; range or bound over all eleven subunit combinations): > 30 µM; inhibitory effect on human and canine GABARs (in words) (human and canine GABARs; listed as lotilaner): little or no inhibitory effect; also recorded: did not show any significant inhibition; neurological symptoms (in words) [3]: did not reveal neurological symptoms
4 | CS(=O)(=O)CC(=O)N1CC2(C1)OCc1cc(C3=NO[C@@](c4cc(Cl)c(F)c(Cl)c4)(C(F)(F)F)C3)ccc12 [Sarolaner, sarolaner] | 19.5 µM | > 30 µM | 13.4 µM | 8.4 µM | 16.1 µM | 21.8 µM | 10.2 µM | 13.4 µM | 13.1 µM | 10.2 µM | 53% | 57% | partial to high inhibition | 21.9 µM | partial inhibition | 1.9 µM | Cmax ([1]; dose of 2 mg/kg body weight, read-out: Cmax in dog plasma): 1.9 µM
5 | CN1C(=O)CN=C(c2ccccc2)c2cc(Cl)ccc21 [diazepam] | – | – | – | – | – | – | – | – | – | – | – | – | – | – | – | – | positive modulation [4]: > 200%
